# Data as given in patent US9365522B2, “Pyrazole amide derivative” (AMGEN INC., priority 2015, dated 2016).
# Biological target: T1, ligand binding domain of human ROR gamma (Homo sapiens, UniProt P51449)
# T1 construct: NM_001001523; expressed in transfected cells; host or cells: HEK293T
# T1 sequence (P51449 247-497 isoform P51449-2): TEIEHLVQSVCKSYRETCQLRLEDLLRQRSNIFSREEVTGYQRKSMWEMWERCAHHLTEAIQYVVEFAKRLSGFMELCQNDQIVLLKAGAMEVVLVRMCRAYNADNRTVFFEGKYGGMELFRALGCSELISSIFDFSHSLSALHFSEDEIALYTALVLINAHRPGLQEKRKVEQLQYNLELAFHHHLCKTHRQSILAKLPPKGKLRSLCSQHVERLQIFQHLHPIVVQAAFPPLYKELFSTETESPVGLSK
# Assay: ROR gamma reporter gene assay (GAL4-RORγ LBD luciferase, Dual-Glo)
# Type: cell-based
# Details: HEK293T cells transfected with pM-ROR gamma, 8 concentrations 3.5 nM to 10.5 μM, 24 h incubation
# Method in brief: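 Inhibition of RORγ-driven transcription was measured in HEK293T cells expressing a GAL4 fusion of the human RORγ LBD (aa 247-497), with renilla luciferase as internal control. Cells in 10% charcoal-stripped serum received compound (3.5 nM–10.5 μM) for 24 h.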
row,SMILES,"result (pIC50, inhibition of RORγ transcriptional activity)"
1,"CC(C)(C)CN(CC(=O)c1c(Cl)cncc1Cl)C(=O)c1cnn(C2CCC(C)(C(=O)O)CC2)c1Cl (stereo not drawn) [Example 276, trans-4-(5-chloro-4-((2-(3,5-dichloropyridin-4-yl)-2-oxoethyl)-(2,2-dimethylpropyl)carbamoyl)pyrazol-1-yl)-1-methylcyclohexane-1-carboxylic acid]",6.91

# Same assay, conditions: HEK293T cells transfected with pM-ROR gamma, 8 concentrations 3.5 nM to 10.5 μM, 24 h incubation; read-out: result (pIC50, inhibition of RORγ transcriptional activity) (converted)
row,SMILES,IC50
1,"Cc1ccnc(C)c1C(=O)CN(Cc1cc(F)cc(F)c1)C(=O)c1cnn([C@H]2CC[C@H](C(=O)O)CC2)c1C(F)(F)F [Example 134, trans-4-(4-((3,5-difiuorophenyl)methyl-(2-(2,4-dimethylpyridin-3-yl)-2-oxoethyl)carbamoyl)-5-(trifluoromethyl)pyrazol-1-yl)cyclohexane-1-carboxylic acid]",245000 pM
2,"CN1C2CCC1CC(N(CC(=O)c1c(Cl)cc(F)cc1Cl)C(=O)c1cnn([C@H]3CC[C@](C)(C(=O)O)CC3)c1C(F)(F)F)C2 (stereo partly drawn) [Example 303, trans-4-(4-((2-(2,6-dichloro-4-fluorophenyl)-2-oxoethyl)-(8-methyl-8-azabicyclo[3.2.1]octan-3-yl)carbamoyl)-5-(trifluoromethyl)pyrazol-1-yl)-1-methylcyclohexane-1-carboxylic acid]",> 3.47e+06 pM
3,"O=C(CN(CC1CCCCC1)C(=O)c1cnn([C@H]2CC[C@H](C(=O)O)CC2)c1C(F)(F)F)c1c(Cl)cncc1Cl [Example 30, trans-4-(4-((cyclohexylmethyl)(2-(3,5-dichloropyridin-4-yl)-2-oxoethyl)carbamoyl)-5-(trifluoromethyl)-1H-pyrazol-1-yl)cyclohexanecarboxylic acid]",46800 pM
4,"Cc1cc(Cl)cc(C)c1C(=O)CN(C(=O)c1cnn([C@H]2CC[C@](C)(C(=O)O)CC2)c1C(F)(F)F)C1CCC(C)(C)CC1 [Example 280, trans-4-(4-((2-(4-chloro-2,6-dimethylphenyl)-2-oxoethyl)-(4,4-dimethylcyclohexyl)carbamoyl)-5-(trifluoromethyl)pyrazol-1-yl)-1-methylcyclohexane-1-carboxylic acid]",245000 pM

# Second part, the molecule after the results:
row,IC50,SMILES
1,33100 pM,"CC(C)(C)OCCN(CC(=O)c1c(Cl)cc(Cl)cc1Cl)C(=O)c1cnn([C@H]2CC[C@](C)(C(=O)O)CC2)c1C(F)(F)F [Example 293, trans-1-methyl-4-(4-(2-((2-methylpropan-2-yl)oxy)ethyl-(2-oxo-2-(2,4,6-trichlorophenyl)ethyl)carbamoyl)-5-(trifluoromethyl)pyrazol-1-yl)cyclohexane-1-carboxylic acid]"
2,31600 pM,"CC1(C)[C@@H]2C[C@H](N(CCc3c[nH]c4cccc(Cl)c34)C(=O)c3cnn([C@H]4CC[C@](C)(C(=O)O)CC4)c3C(F)(F)F)C[C@@H]21 [Example 343, trans-4-(4-((2-(4-chloro-1H-indol-3-yl)ethyl)((1R,3r,5S)-6,6-dimethylbicyclo[3.1.0]hexan-3-yl)carbamoyl)-5-(trifluoromethyl)-1H-pyrazol-1-yl)-1-methylcyclohex anecarboxylic acid]"
3,141000 pM,"CC12CCC(CN(CC(=O)c3c(Cl)cncc3Cl)C(=O)c3cnn([C@H]4CC[C@](C)(C(=O)O)CC4)c3Cl)(CC1)O2 [Example 386, trans-4-(5-chloro-4-((2-(3,5-dichloropyridin-4-yl)-2-oxoethyl)-((1-methyl-7-oxabicyclo[2.2.1]heptan-4-yl)methyl)carbamoyl)pyrazol-1-yl)-1-methylcyclohexane-1-carboxylic acid]"
4,102000 pM,"CC(C)(C)[C@@H]1C[C@H]1N(CC(=O)c1c(Cl)cncc1Cl)C(=O)c1cnn([C@H]2CC[C@](C)(C(=O)O)CC2)c1C(F)(F)F [Example 331, trans-4-(4-(((1R,2S)-2-tert-butylcyclopropyl)-(2-(3,5-dichloropyridin-4-yl)-2-oxoethyl)carbamoyl)-5-(trifluoromethyl)pyrazol-1-yl)-1-methylcyclohexane-1-carboxylic acid]"
